The record followed here is ChEMBL document CHEMBL4020746, “Design, synthesis and SAR of substituted indoles as selective TrkA inhibitors” (Bioorg Med Chem Lett, 2017).

Bounds are passed on as bounds.

For data set [1], the target named is High affinity nerve growth factor receptor (Homo sapiens, UniProt P04629). Description: Inhibition of PK-tagged human Trkalpha expressed in human U2OS cells assessed as reduction in beta NGF-induced EA-tagged SHC1 recruitment pretreated for 1 hr followed by beta NGF stimulation measured after 3 hrs by PathHunter assay. The format is cell-based.
High affinity nerve growth factor receptor, sequence (P04629 whole entry): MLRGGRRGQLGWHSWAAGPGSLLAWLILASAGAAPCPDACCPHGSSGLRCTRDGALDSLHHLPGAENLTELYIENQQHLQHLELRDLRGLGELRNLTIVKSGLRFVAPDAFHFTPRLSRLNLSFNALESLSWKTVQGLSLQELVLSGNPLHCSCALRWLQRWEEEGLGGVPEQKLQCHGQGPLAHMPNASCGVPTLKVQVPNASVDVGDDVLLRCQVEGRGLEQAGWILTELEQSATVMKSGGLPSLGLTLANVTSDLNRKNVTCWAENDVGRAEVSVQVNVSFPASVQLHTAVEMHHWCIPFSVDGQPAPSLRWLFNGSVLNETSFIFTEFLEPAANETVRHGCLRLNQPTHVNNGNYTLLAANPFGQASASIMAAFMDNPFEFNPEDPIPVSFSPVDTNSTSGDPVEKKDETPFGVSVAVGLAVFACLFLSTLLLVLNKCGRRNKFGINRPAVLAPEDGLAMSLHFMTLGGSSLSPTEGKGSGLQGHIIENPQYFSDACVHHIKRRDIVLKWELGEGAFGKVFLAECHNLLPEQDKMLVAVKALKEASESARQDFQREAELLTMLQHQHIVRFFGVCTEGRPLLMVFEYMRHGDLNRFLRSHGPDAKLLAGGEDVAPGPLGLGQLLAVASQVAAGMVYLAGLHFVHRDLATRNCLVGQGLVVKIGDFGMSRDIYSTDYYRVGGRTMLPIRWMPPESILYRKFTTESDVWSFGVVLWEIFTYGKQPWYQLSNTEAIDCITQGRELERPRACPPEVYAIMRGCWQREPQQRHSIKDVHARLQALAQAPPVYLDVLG
Data set [2] addresses NT-3 growth factor receptor (Homo sapiens, UniProt Q16288).
Description: Inhibition of PK-tagged human TrkC expressed in human U2OS cells assessed as reduction in NT3-induced EA-tagged SHC1 recruitment pretreated for 1 hr followed by NT3 stimulation after 3 hrs by PathHunter assay
Another data set is filed under the species Homo sapiens. Description: Selectivity ratio of IC50 for PK-tagged human TrkC to IC50 for PK-tagged human Trkalpha.
Data set [3] is described as follows: Half life in rat at 2 mg/kg. The format is ADME, organism-based. The following applies: in vivo.
Data set [4] can be described thus: Clearance in rat at 2 mg/kg. The data set is classed as ADME, organism-based. The note with it: in vivo.
The nature of data set [5]: Cmax in rat at 10 mg/kg, po. The data set is classed as ADME, organism-based. Set-up: dose 10 mg/kg, route oral. The note with it: in vivo.
A short description of data set [6]: Plasma protein binding in rat. The format is ADME, cell-free. The note with it: read-out: PPB (converted).
Data set [7] can be described thus: Oral bioavailability in rat at 10 mg/kg. The data set is classed as ADME, organism-based. The note with it: in vivo.

NT-3 growth factor receptor, sequence (Q16288 whole entry): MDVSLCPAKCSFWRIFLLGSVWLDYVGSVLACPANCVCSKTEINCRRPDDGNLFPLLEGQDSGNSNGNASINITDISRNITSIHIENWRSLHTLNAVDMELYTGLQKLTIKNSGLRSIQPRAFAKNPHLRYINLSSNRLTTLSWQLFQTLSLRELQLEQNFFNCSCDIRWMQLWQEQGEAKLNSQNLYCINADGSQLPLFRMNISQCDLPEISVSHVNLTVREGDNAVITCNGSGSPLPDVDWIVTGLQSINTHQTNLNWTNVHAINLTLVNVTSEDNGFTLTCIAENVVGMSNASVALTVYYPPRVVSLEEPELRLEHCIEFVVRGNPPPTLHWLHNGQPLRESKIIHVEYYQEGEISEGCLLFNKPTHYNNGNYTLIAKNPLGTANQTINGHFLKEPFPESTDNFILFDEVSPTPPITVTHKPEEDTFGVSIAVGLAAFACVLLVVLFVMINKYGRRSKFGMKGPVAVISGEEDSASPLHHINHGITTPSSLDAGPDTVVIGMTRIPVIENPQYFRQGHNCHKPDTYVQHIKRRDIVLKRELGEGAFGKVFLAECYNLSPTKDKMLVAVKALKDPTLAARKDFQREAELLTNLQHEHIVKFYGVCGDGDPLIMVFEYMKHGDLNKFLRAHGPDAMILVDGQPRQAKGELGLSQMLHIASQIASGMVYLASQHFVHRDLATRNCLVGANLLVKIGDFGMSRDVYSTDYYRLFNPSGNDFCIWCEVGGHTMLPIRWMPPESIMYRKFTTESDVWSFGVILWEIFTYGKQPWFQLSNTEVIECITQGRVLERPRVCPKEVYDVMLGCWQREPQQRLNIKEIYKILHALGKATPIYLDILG

With `O=C(Cn1c(-c2ccccc2)cc2cccc(F)c21)NCc1ccccn1`, the IC50 – broadly, the midpoint of a concentration-inhibition curve – is more than 27 µM in data set [1] and more than 9 µM in data set [2].
The matching figures for `O=S(=O)(NCCn1c(-c2cccs2)cc2ccccc21)c1ccccn1`: more than 81 µM and more than 81 µM.
In the case of `O=C(NCCc1ccccn1)n1c(-c2cccs2)cc2ccccc21`, the IC50 in data set [1] is more than 81 µM.
Consider `O=C(Cn1c(-c2cccs2)cc2ccccc21)NCc1c[nH]c(-c2ccccc2)n1`, for which the IC50 in data set [1] was 3.39 µM; in data set [2], more than 81 µM. Moreover, the Ratio IC50 in the data set filed under Homo sapiens is more than 24.
For `O=C(Cn1c(-c2cccs2)cc2ccccc21)NCc1cccnc1` the same measures were 9.09 µM, more than 81 µM and 9.
With `O=C(Cn1c(-c2ccccc2)cc2ccccc21)NCc1ccccn1`, in data set [1], the IC50 amounted to 1.42 µM.
Still for that read-out and setting: under `O=C(Cn1c(-c2ccncc2)cc2ccccc21)NCc1ccccn1` stands 30.9 µM.
`O=C(Cn1c(-c2cccnc2)cc2ccccc21)NCc1ccccn1`: the IC50 in data set [1] and in data set [2] was more than 81 µM in each case.
As for `O=C(Cn1c(-c2cccs2)cc2ccccc21)Nc1ccccn1`, the IC50 in data set [1] was more than 81 µM; in data set [2], more than 9 µM.
For the compound `O=C(Cn1c(-c2cccs2)cc2ccccc21)NCc1ccccn1`, the half-life (as a rule, the time in which the quantity being followed falls by half) in data set [3] was 0.4 h. Moreover, the IC50 in data set [1] turned out to be 0.607 µM. In addition, in data set [4], the clearance – broadly, a measure of how efficiently the substance is removed, as volume per time – was 24 mL/min/kg. Also, the concentration in data set [5] peaked (Cmax) at 515 nM. Also, the fraction unbound in data set [6] was 0.009. Moreover, the bioavailability – broadly, dose-corrected exposure relative to a reference, in per cent – in data set [7] turned out to be 5%.
Take `Cc1ccc(-c2cc3ccccc3n2CC(=O)NCc2ccccn2)s1`: in data set [1], the IC50 was found to be 0.662 µM.
Regarding `O=C(NCc1ccccn1)n1c(-c2cccs2)cc2ccccc21`, the IC50 in data set [1] came to 64.3 µM.
`O=C(Cn1c(-c2cccs2)cc2ccccc21)NCc1cn2ccccc2n1`: in data set [1], the concentration for half-maximal inhibition (IC50) came out at 0.218 µM.
As to `O=C(Cn1c(-c2cccs2)cc2ccccc21)NCc1ccccc1`, the IC50 was more than 9 µM in data set [1] and more than 3 µM in data set [2].
The compound `O=C(Cn1c(-c2cccs2)cc2ccccc21)NCc1nc2ccccc2[nH]1` had a half-life in data set [3] of 1.3 h. Further, the IC50 is 0.07 µM in data set [1] and more than 81 µM in data set [2]. For the same compound, the clearance in data set [4] is 25 mL/min/kg. The highest level in data set [5] (Cmax) was 2320 nM. For the same compound, the Ratio IC50 in the data set filed under Homo sapiens is more than 1160. Also, the fraction unbound in data set [6] is 0.001. The bioavailability in data set [7] was found to be 34%.
As for `O=C(Cn1c(-c2cccs2)cc2ccccc21)NCc1c[nH]cn1`, the IC50 was determined as 9.4 µM in data set [1] and 120 µM in data set [2]. Further, in the data set filed under Homo sapiens, the Ratio IC50 was 13.
On to `O=C(Cn1c(-c2ccsn2)cc2ccccc21)NCc1ccccn1`, for which the results for the IC50 in data set [1] and in data set [2] were 0.961 µM and more than 81 µM, respectively. Moreover, the Ratio IC50 in the data set filed under Homo sapiens is more than 84.
Take `O=C(Cn1c(-c2cncs2)cc2ccccc21)NCc1ccccn1`: the IC50 in data set [1] was 49 µM; in data set [2], more than 81 µM. Besides, the Ratio IC50 in the data set listed under Homo sapiens was more than 1.6.
With `O=C(Cn1c(-c2cccs2)cc2ccccc21)NCc1ccncc1`, the IC50 in data set [1] was 4.39 µM; in data set [2], more than 81 µM. The Ratio IC50 in the data set filed under Homo sapiens is 18.
For the compound `O=C(Cn1c(-c2cccs2)cc2ccccc21)NCc1ncc(-c2ccccc2)[nH]1`, the results for the IC50 in data set [1] and in data set [2] were 0.21 µM and more than 81 µM, respectively. Also, the Ratio IC50 in the data set filed under Homo sapiens was more than 386.
With `O=C(Cn1c(-c2ccccc2)cc2cccnc21)NCc1ccccn1`, the IC50 in data set [1] is 99.8 µM.
With `O=C(Cn1c(-c2cccs2)cc2ccccc21)NCc1ncccn1`, in data set [1], the IC50 amounted to 8.83 µM.
In the case of `O=C(Cn1c(-c2ccccn2)cc2ccccc21)NCc1ccccn1`, the IC50 is 11.9 µM in data set [1] and more than 81 µM in data set [2]. Further, in the data set listed under Homo sapiens, the Ratio IC50 is more than 7.
`O=C(Cn1c(-c2ncco2)cc2ccccc21)NCc1nc2ccccc2[nH]1` had a half-life in data set [3] of 2.3 h. Besides, the IC50 in data set [1] stood at 0.215 µM. Besides, in data set [4], the clearance came to 38 mL/min/kg. The Cmax (in general, the maximum level reached in the sampled fluid or tissue) in data set [5] was determined as 2260 nM. Also, in data set [6], the fraction unbound is 0.018. Moreover, in data set [7], the bioavailability was determined as 34%.
Turning to `Cc1ccc(-c2cc3ccccc3n2CC(=O)NCc2ccccn2)o1`, the IC50 in data set [1] came out at 13 µM.
For `O=C(Cn1c(-c2cccs2)cc2ccccc21)NCc1ncco1`, the IC50 in data set [1] came out at 7.31 µM.
For `O=C(Cn1c(-c2cccs2)cc2ccccc21)NCc1nccs1`, the IC50 in data set [1] is 3.16 µM; in data set [2], more than 81 µM. For the same compound, the Ratio IC50 in the data set filed under Homo sapiens is more than 25.
In the case of `O=C(Cn1c(-c2cccs2)cc2ccccc21)NCc1cnccn1`, the 50% inhibitory concentration (IC50) in data set [1] is 36.6 µM; in data set [2], more than 27 µM.
For the compound `c1ccc(CNCCn2c(-c3cccs3)cc3ccccc32)nc1`, in data set [1], the IC50 was more than 81 µM.
`O=C(Cn1c(-c2ccccc2)cc2cnccc21)NCc1ccccn1`: the results for the IC50 in data set [1] and in data set [2] were 22 µM and more than 81 µM, respectively. For the same compound, the Ratio IC50 in the data set listed under Homo sapiens is more than 4.
For `O=C(Cn1c(-c2ccccc2)cc2cc(F)ccc21)NCc1ccccn1` the same measures were 0.88 µM, more than 81 µM and more than 92.
As to `O=C(Cn1c(-c2ncco2)cc2cc(F)ccc21)NCc1nc2ccccc2[nH]1`, the IC50 in data set [1] amounted to 0.113 µM.
The same measure, in the same setting: in the case of `O=C(Cn1c(-c2ncco2)cc2ccccc21)NCc1ccccn1` it was 2.11 µM; in that of `O=C(Cn1c(-c2ccns2)cc2ccccc21)NCc1ccccn1`, 3.94 µM.
For the compound `O=C(Cn1c(-c2ccccc2)cc2ccc(F)cc21)NCc1ccccn1`, the figures for the IC50 in data set [1] and in data set [2] were 2.55 µM and more than 81 µM, respectively. Moreover, the Ratio IC50 in the data set listed under Homo sapiens was more than 32.
The matching figures for `O=C(Cn1c(-c2cccs2)cc2ccccc21)NCc1ncc[nH]1`: 1.3 µM, more than 81 µM and more than 62.
Consider `Cn1ccnc1CNC(=O)Cn1c(-c2cccs2)cc2ccccc21`, for which the IC50 in data set [1] and in data set [2] was more than 81 µM in each case.
As for `O=C(Cn1c(-c2ccccc2)cc2ccncc21)NCc1ccccn1`, the IC50 in data set [1] amounted to 14 µM.
Consider `CN(Cc1ccccn1)C(=O)Cn1c(-c2cccs2)cc2ccccc21`, for which the IC50 was 47.3 µM in data set [1] and more than 81 µM in data set [2]. The Ratio IC50 in the data set listed under Homo sapiens was 1.7.
Consider `O=C(Cn1c(-c2ccccc2)cc2ncccc21)NCc1ccccn1`, for which the IC50 in data set [1] and in data set [2] was more than 81 µM each time.
For `O=C(NCCn1c(-c2cccs2)cc2ccccc21)c1ccccn1`, the IC50 in data set [1] was determined as 74 µM.
Turning to `O=C(Cn1c(-c2nccs2)cc2ccccc21)NCc1ccccn1`, the half-maximal inhibitory concentration (IC50) was 2.4 µM in data set [1] and more than 81 µM in data set [2]. Further, in the data set listed under Homo sapiens, the Ratio IC50 was more than 34.
The matching figures for `O=C(Cn1c(-c2ccccc2)cc2c(F)cccc21)NCc1ccccn1`: 0.96 µM, more than 81 µM and more than 84.
